Test results taken from US8765772B2, “Purine derivatives for use in the treatment of allergic, inflammatory and infectious diseases” (GlaxoSmithKline LLC, priority 2008, dated 2014).

System: TNF-α
Assay: Induction of TNF-α using fresh human PBMCs
Type: cell-based
Conditions: PBMC, 24 hr incubation, relative to 2 μM resiquimod control, read-out: mean pEC50 for induction of TNF-α (converted)
Method: Assay for the Induction of Interferon-α and TNF-α using Fresh Human Peripheral Blood Mononuclear Cells (PBMCs)
Compounds were dissolved and serially diluted in DMSO to give 100× the required concentration range using a Biomek 2000. 1 ul of test compound was transferred into 96-well tissue culture plates using a Biomek FX. Each compound was assayed in duplicate for each donor. Each plate contained a dilution series of the TLR7/8 agonist resiquimod as standard and Column 11 contained 1 μl of 200 μM resiquimod (giving a 2 μM final concentration, used to define the approximate maximal response to resiquimod).
Blood samples from two human donors were collected into sodium heparin (10 U/ml). 25 ml volumes of whole blood were overlaid onto 15 mls Histopaque in Leucosep tubes which were centrifuged at 800 g for 20 min and the band at the plasma/histopaque interface carefully removed. The collected cells were centrifuged at 2500 rpm for 10 min and the pellet resuspended in 10 ml of media (RPMI 1640 (Low endotoxin) supplemented with 10% v/v foetal calf serum (FCS, low endotoxin) 100 U/ml penicillin G, 100 μg/ml streptomycin, 10 mM L-glutamine and 1× non-essential amino acids). A 1:20 dilution of the cells was prepared using trypan blue & the cells counted using a haemocytometer. The PBMCs were diluted to give a final concentration of 2×10^6/ml and 100 ul of this cells suspension was added to wells containing 1 μl of diluted test compound.
Incubation and Assays for Interferon-α and TNF-α
The cell preparations were incubated for 24 hr (37° C., 95% air, 5% CO2) after which a sample of the supernatant was removed using the Biomek FX and assayed for both IFN-α and TNF-α using the MSD (Mesoscale Discovery) electrochemiluminescence assay platform. The IFN-α assay was carried out similarly to that described above. The TNF-α assay was carried out as per kit instructions (Cat No K111BHB). Cytokine released was expressed as a percentage of the 2 μM resiquimod control (column 11). This percentage was plotted against compound concentration and the pEC50 for the response determined by non-linear least squares curve fitting. For the IFN-α responses generally a 4 parameter logistic model was selected. For the TNF responses where a clear maximum response was obtained (i.e. a well defined plateau in the response was observed) then a 4 parameter model was generally used. If the upper asymptote of the curve wasn't well defined then the curve fitting was generally constrained to a maximal response of 100% (i.e. to the response to 2 μM resiquimod) or to the response of the highest concentration tested if this was greater than the resiquimod response. Some curves were bell shaped for one or both cytokines and the cytokine data on the down slope of the bell shaped response (i.e. concentrations above those giving the maximal response) were generally excluded from the fit, usually with the exception of the concentration immediately above the peak response. Curve fitting thus concentrated on the up slope of the dose response curve.

Row | EC50 [nM] | Compound
1 | ≥ 1000 | CCCCOc1nc(N)c2[nH]c(=O)n(CCCCCCN3CCCCCC3)c2n1 [Example 15, 6-Amino-2-(butyloxy)-9-[6-(hexahydro-1H-azepin-1-yl)hexyl]-7,9-dihydro-8H-purin-8-one]
2 | ≥ 1000 | CCC[C@H](C)Oc1nc(N)c2[nH]c(=O)n(CCCCN3CCCCCC3)c2n1 [Example 21, 6-Amino-9-[4-(hexahydro-1H-azepin-1-yl)butyl]-2-{[(1S)-1-methylbutyl]oxy}-7,9-dihydro-8H-purin-8-one]
3 | ≥ 1000 | CCC[C@H](C)Oc1nc(N)c2[nH]c(=O)n(CCCCCN3CCCCCC3)c2n1 [Example 23, 6-Amino-9-[5-(hexahydro-1H-azepin-1-yl)pentyl]-2-{[(1S)-1-methylbutyl]oxy}-7,9-dihydro-8H-purin-8-one]
4 | ≥ 1000 | CCC[C@H](C)Oc1nc(N)c2[nH]c(=O)n(CCCCCN3CCCCC3)c2n1 [Example 22, 6-Amino-2-{[(1S)-1-methylbutyl]oxy}-9-[5-(1-piperidinyl)pentyl]-7,9-dihydro-8H-purin-8-one]
5 | ≥ 1000 | CCC[C@H](C)Oc1nc(N)c2[nH]c(=O)n(CCCCN3CCCCC3)c2n1 [Example 20, 6-Amino-2-{[(1S)-1-methylbutyl]oxy}-9-[4-(1-piperidinyl)butyl]-7,9-dihydro-8H-purin-8-one]
6 | ≥ 1000 | CCCCOc1nc(N)c2[nH]c(=O)n(CCCCCCN3CCCC3)c2n1 [Example 13, 6-Amino-2-(butyloxy)-9-[6-(1-pyrrolidinyl)hexyl]-7,9-dihydro-8H-purin-8-one]
